Source: US20070043000A1, “Immunosuppresive effects of pteridine derivatives” (priority 2003, published 2007)
Read-outs that look alike come from different tables or passages of the source.

Columns and labels:
[1] = tested on: IL-1 beta production by PBMC; assay: IL-1 beta assay, LPS-stimulated PBMC, sandwich ELISA; format: cell-based, human
Protocol: (§1) All reagents were dissolved in 0.5 ml dimethylsulfoxide (hereinafter referred as DMSO) and further diluted in culture medium before use for the following in vitro experiments. The commercially available culture medium consisted of RPMI-1640+10% foetal calf serum (FCS). Peripheral blood mononuclear cells (herein referred as PBMC), in response to stimulation by lipopolysaccharide (LPS), a gram-negative bacterial endotoxin, produce various […], in particular human TNF-alpha and II-1 beta. The inhibition of the activation of PBMC can be measured by the level of suppression of the production of TNF-alpha or IL-1 beta by PBMC in response to stimulation by LPS. Such inhibition measurement was performed as follows: PBMC were isolated from heparinized peripheral blood (Buffy coat) by density gradient centrifugation. LPS is then added to the PMBC suspension in complete medium (10^6 cells/ml) at a final concentration of 1 μg/ml. The compound to be tested was added at different dilution levels, and the cells were incubated at 37° C. for 72 hours. The supernatants were collected, and TNF-alpha or II-1 beta concentrations were measured with respectively an anti-TNF antibody or an anti-IL-1 beta antibody in a sandwich ELISA. The percent inhibition was calculated as: % inhibition=(pg/ml in sample−pg/ml min.)/(pg/ml max.−pg/ml min.)−1 wherein: min.: pg/ml in culture medium without test compound, and • max.: pg/ml in culture medium+LPS without test compound.

[2] = tested on: murine experimental allergic encephalomyelitis; assay: Murine multiple sclerosis model (experimental allergic encephalomyelitis); format: in vivo; conditions: animals treated in the murine EAE model, 20 mg/kg/day
[3] = tested on: peripheral blood mononuclear cells (PBMC); assay: Mixed lymphocyte reaction (MLR) test; format: cell-based, human
Protocol: All reagents were dissolved in 0.5 ml dimethylsulfoxide (hereinafter referred as DMSO) and further diluted in culture medium before use for the following in vitro experiments. The commercially available culture medium consisted of RPMI-1640+10% foetal calf serum (FCS). Peripheral blood mononuclear cells (hereinafter referred as PBMC) were isolated from heparinized peripheral blood by density gradient centrifugation over Lymphoprep (Nycomed, Maorstua, Norway). Allogeneic PBMC or […]-Barr Virus-transformed human B cells [commercially available under the trade name RPMI1788 (ATCC name CCL156)] which strongly express B7-1 and B7-2 antigens were used as stimulator cells after irradiation with 30 Gy. MLR was performed in triplicate wells. After 5 days incubation at 37° C., 1 μCi [^3H]-thymidine was added to each cup. After a further 16 hours incubation, cells were harvested and counted in a β-counter. Inhibition of proliferation by a compound (drug) described in some of the previous examples was counted using the formula: [formula] wherein cpm is the thymidine count per minute. TNF-Alpha and IL-1 Beta Assays

[4] = tested on: TNF-alpha production by PBMC; assay: TNF-alpha assay, LPS-stimulated PBMC, sandwich ELISA; format: cell-based, human
Protocol: as §1

[5] = tested on: murine experimental allergic encephalomyelitis; conditions: mouse, in vivo; cited from earlier work
CD3 = conditions: as disclosed in WO 00/45800; cited from earlier work
CD 28 = conditions: as disclosed in WO 00/45800; cited from earlier work
lymphocytes = conditions: as disclosed in WO 00/45800; cited from earlier work
[6] = Table 7, same conditions as example 26, read-out: IL1β IC50
[7] = Table 7, same conditions as example 26
[8] = Table 7, same conditions as example 26, read-out: TNFα IC50

Row | Structure (SMILES) | IC50 [1, 6] [µM] | IC50 [3, 7] [µM] | IC50 [4, 8] [µM] | further results
1 | Cn1c(=O)[nH]c(=O)c2nc(-c3ccc(F)cc3)c(Cl)nc21 [Example 42, 7-chloro-6-(4-fluorophenyl)-1-methyl-lumazine] | 0.7 | 4.8 | 4.7 | sign of toxicity [2]: did not show any sign of toxicity
2 | O=C1c2c(O)ccc(O)c2C(=O)c2c(NCCNCCO)ccc(NCCNCCO)c21 [mitoxantrone] |  |  |  | heart and kidney toxicity [5]: induces heart and kidney toxicity
3 | COc1ccc(-c2nc3c(nc2C(=O)c2ccccc2)c(=O)n(C)c(=O)n3C)cc1 [1,3-dimethyl-6-benzoyl-7-(4-methoxyphenyl)lumazine] |  |  |  | result in CD3 assay (CD3): poor results; result in CD 28 assay (CD 28): poor results; result in Mixed Lymphocyte Reaction test (lymphocytes): poor results
4 | COc1ccc(-c2nc3c(=O)n(CCCC(=O)OC(C)C)c(=O)n(C)c3nc2Br)cc1OC [Example 88, 7-bromo-6-(3,4-dimethoxyphenyl)-3-(isopropyl butyrate)-1-methyl-lumazine] | 7.5 | 4.7 | 0.7 | 
5 | Cn1c(=O)n(CCO)c(=O)c2nc(-c3ccccc3)c(Cl)nc21 [Example 57, 7-chloro-3-(2-hydroxyethyl)-1-methyl-6-phenyl-lumazine] | 0.7 | 5 | 0.4 | 
6 | CCCNC(=O)CCCn1c(=O)c2nc(-c3ccccc3)c(Cl)nc2n(C)c1=O [Example 92, 7-chloro-1-methyl-6-phenyl-3-(N-propyl 4-butyramido)-lumazine] | 1.1 | 3.4 | 5.4 | 
7 | CCOC(=O)CCCn1c(=O)c2nc(-c3ccc(OC)c(OC)c3)c(Cl)nc2n(C)c1=O [Example 63, 7-chloro-6-(3,4-dimethoxyphenyl)-3-(ethyl butyrate)-1-methyl-lumazine] | 0.9 | 5.7 | 0.6 | 
8 | Cn1c(=O)n(CCN2CCCC2)c(=O)c2nc(-c3ccccc3)c(Cl)nc21 [Example 78, 7-chloro-1-methyl-6-phenyl-3-(2-pyrrolidinoethyl)-lumazine] | 0.8 | 4.4 | 7.4 | 
9 | CCOC(=O)CCCn1c(=O)c2nc(-c3ccc(OC)cc3)c(Br)nc2n(C)c1=O [Example 80, 7-bromo-3-(ethylbutyrate)-1-methyl-6-(4-methoxyphenyl)-lumazine] | 6.4 | 5.6 | 2.1 | 
10 | COc1ccc(-c2nc3c(=O)n(C)c(=O)n(C)c3nc2Cl)cc1 [Example 76, 7-chloro-1,3-dimethyl-6-(4-methoxyphenyl)-lumazine] | 0.6 | 4.5 | 0.6 | 
11 | Cn1c(=O)c2nc(-c3ccccc3)c(Cl)nc2n(CCO)c1=O [Example 62, 7-chloro-1-(2-hydroxyethyl)-3-methyl-6-phenyl-lumazine] | 0.6 | 2.5 | 0.6 | 
12 | O=c1[nH]c(=O)n(Cc2ccccc2)c2nc(Cl)c(-c3ccccc3)nc12 [Example 53, 7-chloro-1-benzyl-6-phenyl-lumazine] | 1.2 | 4.4 | 4.5 | 
13 | COc1ccc(-c2nc3c(=O)n(CCO)c(=O)n(C)c3nc2Cl)cc1OC [Example 64, 7-chloro-6-(3,4-dimethoxyphenyl)-3-(2-hydroxyethyl)-1-methyl-lumazine] | 0.5 | 5.7 | 0.7 | 
14 | COc1ccc(-c2nc3c(=O)[nH]c(=O)n(C)c3nc2Br)cc1 [Example 51, 7-bromo-6-(4-methoxyphenyl)-1-methyl-lumazine] | 5.7 | 3.6 | 4.6 | 
15 | Cn1c(=O)n(Cc2ccccc2)c(=O)c2nc(-c3ccccc3)c(Cl)nc21 [Example 59, 7-chloro-3-benzyl-1-methyl-6-phenyl-lumazine] | 0.5 | 5 | 5.3 | 
16 | Cn1c(=O)n(CCN2CCOCC2)c(=O)c2nc(-c3ccccc3)c(Cl)nc21 [Example 74, 7-chloro-1-methyl-3-(2-morpholinoethyl)-6-phenyl-lumazine] | 0.7 | 4.2 | 2.6 | 
17 | COc1ccc(-c2nc3c(=O)[nH]c(=O)n(C)c3nc2Cl)cc1 [Example 15, 1-methyl-6-(4′-methoxyphenyl)-7-chloro-lumazine] |  |  |  | IC50 ([1]; Table 2, LPS 1 μg/ml, 72 hours, read-out: IL-1 IC50): 0.4 µM; IC50 ([3]; Table 2, [3H]-thymidine incorporation after 5 days incubation): 3 µM; IC50 ([4]; Table 2, LPS 1 μg/ml, 72 hours, read-out: TNF IC50): 0.8 µM
18 | Cn1c(=O)c2nc(-c3ccccc3)c(Cl)nc2n(Cc2ccccc2)c1=O [Example 61, 1-benzyl-7-chloro-3-methyl-6-phenyl-lumazine] | 0.5 | 3.7 | 0.7 | 
19 | Cn1c(=O)[nH]c(=O)c2nc(-c3ccc(C#N)cc3)c(Cl)nc21 [Example 48, 7-chloro6-(4-cyanophenyl)-1-methyl-lumazine] | 0.4 | 4.3 | 2.5 | 
20 | CCOC(=O)CCCn1c(=O)c2nc(-c3ccc(OC)cc3)c(F)nc2n(C)c1=O [Example 83, 3-(ethyl butyrate)-7-fluoro-1-methyl-6-(4-methoxyphenyl)-lumazine] | 6.4 | 4.5 | 4.9 | 
21 | COc1ccc(-c2nc3c(=O)[nH]c(=O)n(C)c3nc2Cl)cc1OC [Example 41, 7-chloro-6-(3,4-dimethoxyphenyl)-1-methyl-lumazine] | 0.7 | 5.1 | 1.7 | 
22 | Cn1c(=O)n(CCCC(=O)O)c(=O)c2nc(-c3ccccc3)c(Cl)nc21 [Example 85, 7-chloro-3-(n-butyric acid)-1-methyl-6-phenyl-lumazine] | 3.9 | 5 | 6.1 | 
23 | CCCCOC(=O)NCCn1c(=O)c2nc(-c3ccccc3)c(Cl)nc2n(C)c1=O [Example 75, 3-(2-butyloxycarbonyl-aminoethyl)-7-chloro-1-methyl-6-phenyl-lumazine] | 0.7 | 5.1 | 3.5 | 
24 | COc1ccc(-c2nc3c(=O)[nH]c(=O)n(C)c3nc2Cl)cc1 [Example 40, 7-chloro-6-(4-methoxyphenyl)-1-methyl-lumazine] | 0.6 | 3.3 | 0.8 | 
25 | Cn1c(=O)n(CCc2ccccc2)c(=O)c2nc(-c3ccccc3)c(Cl)nc21 [Example 58, 7-chloro-3-(2-phenylethyl)-1-methyl-6-phenyl-lumazine] | 0.5 | 5.6 | 5.5 | 
26 | CCOC(=O)CCCn1c(=O)c2nc(-c3ccc(OC)cc3)c(Cl)nc2n(C)c1=O [Example 73, 7-chloro-3-(ethyl butyrate)-1-methyl-6-(4-methoxyphenyl)-lumazine] | 0.5 | 4.9 | 0.6 | 
27 | CCOC(=O)CCCn1c(=O)c2nc(-c3ccccc3)c(Cl)nc2n(-c2ccccc2)c1=O [Example 65, 7-chloro-1,6-diphenyl-3-(ethyl butyrate)-lumazine] | 0.5 | 3.8 | 0.8 | 
28 | Cn1c(=O)n(CCN2CCCCC2)c(=O)c2nc(-c3ccccc3)c(Cl)nc21 [Example 77, 7-chloro-1-methyl-6-phenyl-3-(2-piperidinoethyl)-lumazine] | 0.7 | 3.4 | 3.7 | 
